Results on 15 compounds are retold here after patent publication US9107946B2, “Drug combinations comprising a DGAT inhibitor and a PPAR-agonist” (Janssen Pharmaceutica NV, priority 2008, dated 2015).

The target in one data set is T1, human DGAT1 (Homo sapiens, UniProt O75907).
T1 construct: FLAG (N); made in house; host or cells: SF9 insect cells (pFastBac / baculovirus); total cell membranes
T1 sequence (O75907 1-488): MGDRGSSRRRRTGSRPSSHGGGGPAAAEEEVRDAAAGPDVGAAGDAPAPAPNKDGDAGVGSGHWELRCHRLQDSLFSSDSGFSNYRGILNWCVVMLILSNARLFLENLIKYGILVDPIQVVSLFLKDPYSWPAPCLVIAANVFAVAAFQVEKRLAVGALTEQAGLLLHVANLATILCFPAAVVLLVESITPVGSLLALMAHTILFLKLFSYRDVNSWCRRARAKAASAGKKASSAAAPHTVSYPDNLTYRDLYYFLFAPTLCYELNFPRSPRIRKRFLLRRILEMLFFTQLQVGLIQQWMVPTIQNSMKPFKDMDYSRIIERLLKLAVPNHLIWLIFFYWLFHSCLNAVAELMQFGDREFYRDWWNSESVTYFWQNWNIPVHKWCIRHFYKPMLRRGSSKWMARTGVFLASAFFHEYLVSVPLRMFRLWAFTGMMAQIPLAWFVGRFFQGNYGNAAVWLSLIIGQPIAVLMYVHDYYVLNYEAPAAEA
Briefly: DGAT1 FlashPlate assay: inhibition of DGAT1 activity in membrane preparations. The data set is classed as biochemical. The settings on record: human DGAT1 membranes from SF9 cells, [3H]-oleoylCoA, 120 min at 37° C.; for IC50: read-out: pIC50 (-logIC50, 50% inhibition of DGAT1 activity) (converted). The source says: The inhibiting activity of compounds of Class A, Class B, Class C and Class D on DGAT1 activity was screened in a single well procedure assay using DGAT1 comprising membrane preparations and DGAT1 substrate comprising micelles and determining formed radio-active triacylglycerol coming in close proximity of a flashplate surface by radioluminescence.
Said assay is described in full detail in WO2006/067071, the content of which is incorporated herein by reference.
By DGAT1 activity is meant the transfer of coenzyme A activated fatty acids to the 3-position of 1,2-diacylglycerols, thus forming a triglyceride molecule, by enzyme DGAT1.
human DGAT1 (NM012079.2) was cloned into the pFastBac vector, containing translation start, a FLAG-tag at the N-terminus as described in literature and a viral Kozak sequence (AAX) preceding the ATG to improve expression in insect cells. Expression was done as described in literature (Cases, S., Smith, S. J., Zheng, Y., Myers H. M., Lear, S. R., Sande, E., Novak, S., Collins, C., Welch, C. B., Lusis, A. J., Erickson, S. K. and Farese, R. V. (1998) Proc. Natl. Acad. Sci. USA 95, 13018-13023.) using SF9 cells.
72h transfected SF9 cells were collected by centrifugation (13000 rpm-15 min-4° C.) and lysed in 2×500 ml lysisbuffer (0.1M Sucrose, 50 mM KCl, 40 mM KH2PO4, 30 mM EDTA pH 7.2. Cells were homogenized by cell disruptor. After centrifugation 1380 rpm-15 min-4° C. (SN discarded), pellet was resuspended in 500 ml lysisbuffer and total cell membranes collected by ultracentrifugation at 34000 rpm(100 000 g) for 60 min (4° C.). The collected membranes were resuspended in lysis buffer, divided in aliquots and stored with 10% glycerol at −80° C. until use.
• a) 1,2-dioleoyl-sn-glycerol, 10 mg/ml (1,2-diacylglycerol (DAG)) Dissolve in acetonitrile; evaporate the acetonitrile solution under nitrogen and reconstitute in chloroform at a final concentration of 10 mg/ml. • b) L-α-phosphatidylcholine, 1 mg/ml (phosphatidylcholine (PC)) • Dissolve in chloroform at a final concentration of 1 mg/ml and store at 4° C. • c) L-α-phosphatidyl-L-serine, 1 mg/ml (phophatidylserine (PS)) • Dissolve in chloroform at a final concentration of 1 mg/ml and store at 4° C. Method
Add 1 ml dioleoyl-sn-glycerol (10 mg/ml) to 10 ml of L-α-phosphatidylcholine (1 mg/ml) and 10 ml of L-α-phosphatidyl-L-serine (1 mg/ml) in a thick glass recipient. Evaporate under nitrogen and put on ice for 15 min Reconstitute in 10 ml Tris/HCl (10 mM, pH 7.4) by sonication on ice. The sonification process includes sonification cycles of 10 seconds in the sonification bath followed by 10 seconds cool down on ice and repeating this sonification cycle till a homogeneous solution is obtained (takes about 15 min). The thus obtained micelles are stored at −20° C. till later use and contain DAG at a final concentration of 1.61 mM.
• a) Assaybuffer • 50 mM Tris-HCl (pH 7.4), 150 mM MgCl2, 1 mM EDTA, 0.2% BSA. • b) N-ethylmaleimide, 5M • Dissolve 5 g into a final volume of 8 ml DMSO 100% and store at −20° C. in aliquots till later use. • c) Substrate mix (for 1 384 well plate=3840 μl) • 612 μl micelles stock (51 μM final) • 16.6 μl oleoylCoA 9.7 mM • 23 μl [^3H]-oleoylCoA (49 Ci/mmol, 500 μCi/ml) • 3188.4 μl Tris pH 7.4, 10 mM • d) Enzyme mix (for 1 384 well plate=3520 μl) (5 μg/ml) • Add 11.73 μl of DGAT membrane stock (1500 μg/ml stock) to 3508 μl assay buffer. • e) Stop mix (for 1 384 well plate=7.68 ml) (250 mM) • Add 384 μl of N-ethylmaleimide (5M) to 3.456 ml DMSO 100%, and further dilute 3.84 ml of said solution with 3.84 ml DMSO 10%. Method
DGAT activity in membrane preparations was assayed in 50 mM Tris-HCl (pH 7.4), 150 mM MgCl2, 1 mM EDTA and 0.2% BSA, containing 50 μM DAG, 32 μg/ml PC/PS and 8.4 μM [^3H]-oleoylCoA (at a specific activity of 30 nCi/well) in a final volume of 50 μl in 384-well format using the red shifted Basic Image FlashPlate™ (Perkin Elmer Cat.No. SMP400). […]

For `O=C(Nc1cccc(N2CCCC2)c1)c1ccc(N2CCN(C(=O)Cc3c(Cl)cc(CN4CCCC4)cc3Cl)CC2)cc1` [147-Class C, 4-[4-[[2,6-dichloro-4-(1-pyrrolidinylmethyl)phenyl]acetyl]-1-piperazinyl]-N-[3-(1-pyrrolidinyl)phenyl]-benzamide], the melting point (in general, the temperature of the solid-liquid transition) fell in the range of 262 to 263 °C. Besides, the IC50 at human DGAT1 was 0.0389 µM.

With `CCN1CCN(Cc2cc(Cl)c(CC(=O)N3CCN(c4ccc(C(=O)Nc5cccc(N6CCCC6)c5)cc4)CC3)c(Cl)c2)CC1` [148-Class C, 4-[4-[[2,6-dichloro-4-[(4-ethyl-1-piperazinyl)methyl]phenyl]acetyl]-1-piperazinyl]-N-[3-(1-pyrrolidinyl)phenyl]-benzamide], the melting point lay in the range of 180 to 182 °C. The IC50 at human DGAT1 is 0.00912 µM.

In turn, `CC(=O)N1CCN(Cc2cc(Cl)c(CC(=O)N3CCN(c4ccc(C(=O)Nc5cccc(N6CCCC6)c5)cc4)CC3)c(Cl)c2)CC1` [149-Class C, 4-[4-[[4-[(4-acetyl-1-piperazinyl)methyl]-2,6-dichlorophenyl]acetyl]-1-piperazinyl]-N-[3-(1-pyrrolidinyl)phenyl]-benzamide] gave a melting point of 250 to 252 °C. The IC50 at human DGAT1 was 0.00617 µM.

Consider `CS(=O)(=O)N1CCN(Cc2cc(Cl)c(CC(=O)N3CCN(c4ccc(C(=O)Nc5cccc(N6CCCC6)c5)cc4)CC3)c(Cl)c2)CC1` [150-Class C, 4-[4-[[2,6-dichloro-4-[[4-(methylsulfonyl)-1-piperazinyl]methyl]phenyl]acetyl]-1-piperazinyl]-N-[3-(1-pyrrolidinyl)phenyl]-benzamide], for which the melting point lay within 240 to 242 °C. Moreover, the IC50 on human DGAT1 was 0.00603 µM.

Regarding `O=C(Nc1cccc(N2CCCC2)c1)c1ccc(N2CCN(C(=O)Cc3ccc(CN4CCCC4)cc3Cl)CC2)cc1` [151-Class C, 4-[4-[[2-chloro-4-(1-pyrrolidinylmethyl)phenyl]acetyl]-1-piperazinyl]-N-[3-(1-pyrrolidinyl)phenyl]-benzamide], the melting point was in the range of 224.1 to 225.4 °C. Also, at human DGAT1, the IC50 is 0.316 µM.

Compound `O=C(Nc1cccc(N2CCCC2)c1)c1ccc(N2CCN(C(=O)C(O)c3ccc(CN4CCCC4)cc3Cl)CC2)cc1` (centres unmarked) [152-Class C, 4-[4-[[2-chloro-4-(1-pyrrolidinylmethyl)phenyl]hydroxyacetyl]-1-piperazinyl]-N-[3-(1-pyrrolidinyl)phenyl]-benzamide] gave a melting point of 138.7 to 140.9 °C. Moreover, the IC50 at human DGAT1 was 0.0355 µM.

In the case of `O=C(NCc1cccc(N2CCCC2)c1)c1ccc(N2CCN(C(=O)Cc3c(Cl)cc(CN4CCCC4)cc3Cl)CC2)cc1` [267-Class D, 4-[4-[[2,6-dichloro-4-(1-pyrrolidinylmethyl)phenyl]acetyl]-1-piperazinyl]-N-[[3-(1-pyrrolidinyl)phenyl]methyl]-benzamide], the “pIC50 (-logIC50, 50% inhibition of DGAT1 activity)” value against human DGAT1 was determined as 6.97.

Take `COc1ccc(CC(=O)Nc2ccc(N3CCN(C(=O)Cc4c(Cl)cc(CN5CCCC5)cc4Cl)CC3)cc2)cc1` [351-Class D, N-[4-[4-[[2,6-dichloro-4-(1-pyrrolidinylmethyl)phenyl]acetyl]-1-piperazinyl]phenyl]-4-methoxy-benzeneacetamide]: the “pIC50 (-logIC50, 50% inhibition of DGAT1 activity)” value against human DGAT1 is reported as 6.62.

With `COc1ccc(CC(=O)Nc2ccc(N3CCN(C(=O)C(O)c4ccc(CN5CCCC5)cc4Cl)CC3)cc2)cc1` (centres unmarked) [352-Class D, N-[4-[4-[[2-chloro-4-(1-pyrrolidinylmethyl)phenyl]hydroxyacetyl]-1-piperazinyl]phenyl]-4-methoxy-benzeneacetamide], on human DGAT1, the “pIC50 (-logIC50, 50% inhibition of DGAT1 activity)” value came out at 6.45.

Compound `COc1cc(CNC(=O)c2ccc(N3CCN(C(=O)Cc4ccc(CN5CCCC5)cc4Cl)CC3)cc2)cc(OC)c1` [353-Class D, 4-[4-[[2-chloro-4-(1-pyrrolidinylmethyl)phenyl]acetyl]-1-piperazinyl]-N-[(3,5-dimethoxyphenyl)methyl]-benzamide] yielded a melting point of 126.6 to 128.1 °C. Moreover, the IC50 at human DGAT1 is 0.257 µM.

`O=C(NCc1cccc(N2CCCC2)c1)c1ccc(N2CCN(C(=O)Cc3ccc(CN4CCCC4)cc3Cl)CC2)cc1` [354-Class D, 4-[4-[[2-chloro-4-(1-pyrrolidinylmethyl)phenyl]acetyl]-1-piperazinyl]-N-[[3-(1-pyrrolidinyl)phenyl]methyl]-benzamide] had a melting point of 206.3 to 209.4 °C. Moreover, the IC50 at human DGAT1 was 0.646 µM.

As to `COc1ccc(CC(=O)Nc2ccc(N3CCN(C(=O)Cc4ccc(CN5CCCC5)cc4Cl)CC3)cc2)cc1` [355-Class D, N-[4-[4-[[2-chloro-4-(1-pyrrolidinylmethyl)phenyl]acetyl]-1-piperazinyl]phenyl]-4-methoxy-benzeneacetamide], the melting point fell in the range of 153.3 to 155.2 °C. Moreover, the IC50 on human DGAT1 was 0.912 µM.

For the compound `O=C(NCc1cccc(N2CCCC2)c1)c1ccc(N2CCN(C(=O)C(O)c3ccc(CN4CCCC4)cc3Cl)CC2)cc1` (centres unmarked) [356-Class D, 4-[4-[[2-chloro-4-(1-pyrrolidinylmethyl)phenyl]hydroxyacetyl]-1-piperazinyl]-N-[[3-(1-pyrrolidinyl)phenyl]methyl]-benzamide], the melting point was in the range of 134.4 to 137 °C. The IC50 at human DGAT1 was 0.0741 µM.

For `COc1cc(CNC(=O)c2ccc(N3CCN(C(=O)C(O)c4ccc(CN5CCCC5)cc4Cl)CC3)cc2)cc(OC)c1` (centres unmarked) [357-Class D, 4-[4-[[2-chloro-4-(1-pyrrolidinylmethyl)phenyl]hydroxyacetyl]-1-piperazinyl]-N-[(3,5-dimethoxyphenyl)methyl]-benzamide], the IC50 at human DGAT1 was 0.055 µM.

In the case of `CCN1CCN(Cc2cc(Cl)c(CC(=O)N3CCN(c4ccc(C(=O)NCc5cccc(N6CCCC6)c5)cc4)CC3)c(Cl)c2)CC1` [359-Class D, 4-[4-[[2,6-dichloro-4-[(4-ethyl-1-piperazinyl)methyl]phenyl]acetyl]-1-piperazinyl]-N-[[3-(1-pyrrolidinyl)phenyl]methyl]-benzamide], the melting point lay in the range of 240 to 241 °C. For the same compound, on human DGAT1, the IC50 was 0.0282 µM.
